From patent US11926584B2, “Methods of making bempedoic acid and compositions of the same” (Esperion Therapeutics, Inc., priority 2019, dated 2024)

Key:
[1] = Dynamic vapor sorption (water sorption) of the crystalline form; assay type: physicochemical; details: relative humidity of 80%, temperature of 25° C., isotherm in FIG. 6
Method: The crystalline form of the compound of formula (V) may also be characterized according to its water sorption properties. […] In certain embodiments, the crystalline form of the compound of formula (V) has a water sorption isotherm, when measured at 25° C., substantially the same as shown in FIG. 6.

[2] = Thermogravimetric analysis (TGA) of the crystalline form; assay type: physicochemical; details: heated at 10° C./minute from ambient (~25° C.) to about 315° C., open platinum pans
Method: Thermogravimetric analysis (TGA) data for the crystalline form of the compound of formula (V) were collected using a TA Discovery 550 TGA instrument. The TGA instrument was calibrated using a nickel reference standard. Samples of the crystalline form of the compound of formula (V) were placed in open platinum sample pans and heated at a rate of 10° C./minute from about ambient temperature (˜25° C.) to about 315° C.

- change in mass, as determined by dynamic vapor sorption [1]: about 0.03%
SMILES: CC(C)(CCCCCC(O)CCCCCC(C)(C)C(=O)O)C(=O)O [compound of formula (V), 8-hydroxy-2,2,14,14-tetramethylpentadecanedioic acid]
- weight loss in TGA curve [2]: negligible weight loss prior to decomposition
